{"source": "patent US20110136151A1", "about": "“ASSAYS FOR DIAGNOSING AND EVALUATING TREATMENT OPTIONS FOR POMPE DISEASE” (AMICUS THERAPEUTICS, INC., priority 2008, published 2011)", "key": {"[1]": {"system": "GAA", "assay": "GAA levels after longer treatment of cynomolgus monkeys", "assay_type": "in vivo", "conditions": "treatment 4-13 weeks"}, "[2]": {"system": "acid α-glucosidase (GAA)", "assay": "Ex vivo GAA enhancement assay in Pompe patient-derived lymphoblast cell lines treated with DNJ (4-MU-alpha-Glc lysate activity)", "assay_type": "cell-based, human", "conditions": "five days", "protocol": "Lymphoblast cell lines were derived from 26 patients and treated with DNJ (0, 30, 100 and 300 μM) for five days. Lymphoblastoid cell lines (LCLs) are leukocyte cultures (primarily B cells) that have been transformed with the Epstein-Barr Virus (EBV) to produce proliferative suspension cultures. Leukocyte cultures were prepared as described in Example 2, and transformed with the EBV to establish the lymphoblast cells. Because well established LCLs can be very fast-growing (even those with genetic and metabolic disorders), their density must be carefully controlled to prevent overcrowding over an extended period. The following protocol details cell seeding density, treatment with a test compound (i.e. DNJ) treatment compound washout, lysing, and assaying of LCLs for the measurement of acid α-glucoside (GAA) with the test compound.\n• 1. All cell culture work was performed in a BLII Bio-safety cabinet using sterile techniques. LCL culture was expanded to a T75 by transferring 7e^6-1e^7 cells total to a T75 and add 40 ml 37° C. complete growth media. • 2. Optimal LCL cultures were selected in T75 flasks based on cell density and viability. A cell count was performed on these cultures. Usually a cell density of 1e^6 cells/ml maintains LCLs at the highest viability (90-98% viable). Cells densities higher than 1e^6 cells/ml drastically reduce the overall viability in the culture. • 3. A sterile 50 ml conical centrifuge tube was used to prepare a cell suspension in the appropriate amount of complete growth media to obtain a final cell density of approximately 2.0×10^5 cells/ml at a volume of at least 20 ml. (For example, if the original culture contains 1e^6 cells/ml, 16 ml media should be added to 4 ml of the cell suspension in the staging tube to create a density of 2e^5 cells/ml in a volume of 20 ml.). Cell suspensions were dispensed into four labeled T25 flasks at 5 ml each total volume. This process is repeated for each LCL to be processed. All flasks were placed in a humidified 5% CO2 37° C. incubator overnight. The original T75 cultures can be expanded and returned to the same incubator, if necessary. 5. Treatment with Test Compound • 1. Treatment of the cells with the DNJ test compound was performed 24 hours after the cells were seeded into T25 flasks. • 2. 5 ml of each treatment concentration is required for each cell line. Cell lines were treated with test compound over a concentration range of 0, x, 3x, and 10x test compound. • 3. A 2x stock of test compound solution was prepared in sterile 15 ml or 50 ml centrifuge tubes for each condition and 5 ml solution was added to 5 ml pre-incubated culture. Stock concentrations of 0, 60, 200, and 600 μM DNJ were made; when added to the flasks, the final concentrations were 0, 30, 100, and 300 μM DNJ. • 4. Each set of flasks were marked with the appropriate treatment concentrations, and 5 ml from the corresponding stock suspension were added to each flask. All flasks were returned to the incubator for 5 days.\n• 1. After five days (120 hours) of treatment, 100% of the media was exchanged in the cell suspension with compound-free complete media in the following manner; • 2. The contents of each T25 was transferred to a sterile 15 ml conical centrifuge tube that had been pre-numbered to maintain order of concentration range. • 3. After each set was transferred, each T25 was washed with 5 ml blank RPMI 1640 (no phenol red). • 4. The tubes were centrifuged at 21° C. for 10 min at 600 g. During the spin, the blank RPMI was removed from the flasks by aspiration, maintaining sterility. • 5. Following the centrifugation, the supernatant was removed from the tubes by aspiration and the pellets were resuspended in 10 ml complete media. The cell suspensions were transferred back to their respective flasksAll flasks were returned to the 5% CO2 37° C. incubator overnight."}, "[3]": {"target": "T1, GAA (Mus musculus, UniProt P70699)", "T1 construct": "treatment of wild type mice and cynomolgus monkeys for longer periods of time; from tissue; host or cells: wild type mice", "T1 sequence (P70699 70-953)": "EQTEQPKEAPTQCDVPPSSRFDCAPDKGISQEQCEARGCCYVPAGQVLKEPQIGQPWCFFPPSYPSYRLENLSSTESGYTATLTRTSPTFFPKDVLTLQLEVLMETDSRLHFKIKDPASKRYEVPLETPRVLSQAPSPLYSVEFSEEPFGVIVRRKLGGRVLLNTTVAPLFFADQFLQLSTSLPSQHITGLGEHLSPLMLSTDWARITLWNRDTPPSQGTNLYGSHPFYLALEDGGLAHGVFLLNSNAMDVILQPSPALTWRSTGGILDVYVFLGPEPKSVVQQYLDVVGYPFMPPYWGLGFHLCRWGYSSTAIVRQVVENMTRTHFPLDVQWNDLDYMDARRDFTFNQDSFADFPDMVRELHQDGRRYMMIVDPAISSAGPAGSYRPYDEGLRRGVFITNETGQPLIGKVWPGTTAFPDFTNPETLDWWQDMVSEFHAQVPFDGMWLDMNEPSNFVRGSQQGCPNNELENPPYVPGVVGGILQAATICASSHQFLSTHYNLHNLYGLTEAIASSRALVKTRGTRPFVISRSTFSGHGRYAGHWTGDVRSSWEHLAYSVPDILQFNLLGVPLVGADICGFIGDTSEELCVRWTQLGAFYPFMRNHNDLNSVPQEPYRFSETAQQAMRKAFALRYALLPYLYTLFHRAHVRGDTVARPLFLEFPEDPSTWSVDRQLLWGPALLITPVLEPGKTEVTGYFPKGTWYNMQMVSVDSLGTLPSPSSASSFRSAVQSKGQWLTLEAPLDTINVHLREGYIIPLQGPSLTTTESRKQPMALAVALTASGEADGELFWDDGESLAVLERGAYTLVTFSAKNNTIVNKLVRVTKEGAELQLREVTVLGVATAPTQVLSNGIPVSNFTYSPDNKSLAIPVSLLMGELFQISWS", "assay": "GAA levels after longer treatment of wild type mice", "assay_type": "in vivo", "conditions": "treatment 4-13 weeks"}, "[4]": {"conditions": "24/26 patient lymphoblast cell lines, DNJ 30-300 μM"}, "[5]": {"conditions": "patient cell lines with at least one missense mutation"}, "[6]": {"conditions": "patient cell lines with one copy of IVS1 13T>G and one copy of a non-missense null mutation"}}, "data": [{"smiles": "OC[C@H]1NCC(O)[C@@H](O)C1O", "note": "(stereo partly drawn) [DNJ, 1-deoxynojirimycin]", "values": [{"measurement": "increase in GAA levels", "setting": "[1]", "result": "≥ 2", "unit": "fold"}, {"measurement": "increase in GAA levels, mean", "setting": "[2]; [4]", "result": 93, "unit": "%"}, {"measurement": "increase in GAA levels, range", "setting": "[2]; [4]", "result": "7-620%"}, {"measurement": "dose-dependent increase in GAA levels, mean", "setting": "[2]; [5]", "result": 219, "unit": "%"}, {"measurement": "dose-dependent increase in GAA levels, range", "setting": "[2]; [5]", "result": "7-620%"}, {"measurement": "increase in GAA levels, mean", "setting": "[2]; [6]", "result": 22, "unit": "%"}, {"measurement": "increase in GAA levels, range", "setting": "[2]; [6]", "result": "7-51%"}, {"measurement": "patient cell lines with dose-dependent increase in GAA levels", "setting": "[2]; patient-derived lymphoblasts, DNJ 0, 30, 100 and 300 μM", "result": "24/26"}, {"measurement": "increase in GAA levels", "setting": "[3]", "result": "≥ 2", "unit": "fold"}]}]}
